Among the data in US20260295053A1, “COMPOUNDS FOR DEGRADATION AND INHIBITION OF KRAS (G12D) PROTEIN” (Shenzhen Ionova Life Science Co., Ltd., priority 2023, published 2026) are DC50 and IC50 values, retold here.

In assay [1] the target is T1, KRAS (G12D) (Homo sapiens, UniProt P01116, G12D).
T1 construct: in-cell western with KRAS G12D antibody after 24 h
Kind of assay: KRAS (G12D) cellular degradation assay in AsPC-1 cells. The format is cell-based. Particulars: 24 hours, antibody fluorescence (Odyssey CLX), DC50 half-maximal degradation concentration. The procedure, abridged:
(§1)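 Degradation: 22,000 cells/well grown to ~90% confluency, 24 h compound, fixed/permeabilised, anti-KRAS G12D + β-actin antibodies, near-IR fluorescence, DC50. Proliferation: 3,500 cells/well overnight, 6 d compound, CellTiter Glo luminescence, IC50. Dosing […]–1.5 nM final, 1:3 steps.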

Assay [2] has as its system AsPC-1 cells. Kind of assay: AsPC-1 cell proliferation assay (CellTiter Glo). The format is cell-based. To be noted: Homo sapiens, ASPC1, 144 h, 6 days. The essentials:
as §1
(In general: Cellular ATP, detected with luciferase, serves as a proxy for viable cell number.)

T1 sequence (P01116 1-188 isoform P01116-2 G12D): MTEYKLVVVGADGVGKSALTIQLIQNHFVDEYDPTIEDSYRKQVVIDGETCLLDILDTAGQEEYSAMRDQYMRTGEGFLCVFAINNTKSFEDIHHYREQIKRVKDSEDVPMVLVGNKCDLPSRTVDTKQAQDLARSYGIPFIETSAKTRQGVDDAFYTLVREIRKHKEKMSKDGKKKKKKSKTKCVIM

As a reminder, the DC50 is the concentration at which degradation of the target reaches its halfway point. A lower DC50 goes with a more potent degrader. The IC50 is the concentration that inhibits the measured activity by half. Higher therefore signals a need for much substance. Regarding `CCn1nccc1-c1ccc([C@@H](NC(=O)[C@@H]2C[C@@H](O)CN2C(=O)[C@H](C(C)C)n2cc(-c3ccc(COc4c(-c5c(C)c(F)cc6[nH]ncc56)c(C5CCC5)cc5c(N6C[C@@H]7C[C@H]6CN7)nc(OC[C@H](C)OC)nc45)cc3)nn2)[C@H](C)O)cc1` [Example 88, (2S,4R)-1-((2S)-2-(4-(4-(((4-((1S,4S)-2,5-diazabicyclo[2.2.1]heptan-2-yl)-6-cyclobutyl-7-(6-fluoro-5-methyl-1H-indazol-4-yl)-2-((S)-2-methoxypropoxy)quinazolin-8-yl)oxy)methyl)phenyl)-1H-1,2,3-triazol-1-yl)-3-methylbutanoyl)-N-((1R,2S)-1-(4-(1-ethyl-1H-pyrazol-5-yl)phenyl)-2-hydroxypropyl)-4-hydroxypyrrolidine-2-carboxamide], in assay [1], the DC50 was below 10 nM. For the same molecule, the IC50 in assay [2] was below 10 nM.

In assay [1], `CCn1nccc1-c1ccc([C@H](CO)NC(=O)[C@@H]2C[C@@H](O)CN2C(=O)[C@H](C(C)C)n2cc(-c3ccc(COc4c(-c5c(C)c(F)cc6[nH]ncc56)c(C5CC5)cc5c(N6C[C@@H]7C[C@H]6CN7)nc(OC[C@H](C)OC)nc45)cc3Cl)nn2)cc1` [Example 32, (2S,4R)-1-((2S)-2-(4-(4-(((4-((1S,4S)-2,5-diazabicyclo[2.2.1]heptan-2-yl)-6-cyclopropyl-7-(6-fluoro-5-methyl-1H-indazol-4-yl)-2-((S)-2-methoxypropoxy)quinazolin-8-yl)oxy)methyl)-2-chlorophenyl)-1H-1,2,3-triazol-1-yl)-3-methylbutanoyl)-N—((R)-1-(4-(1-ethyl-1H-pyrazol-5-yl)phenyl)-2-hydroxyethyl)-4-hydroxypyrrolidine-2-carboxamide] came in with a half-maximal degradation concentration (DC50) of 10 to 100 nM. Also, the IC50 in assay [2] was in the range of 10 to 100 nM.

Turning to `CO[C@H]1C[C@@H](Oc2nc(N3C[C@@H]4C[C@H]3CN4)c3cc(C4CC4)c(-c4c(C)c(F)cc5[nH]ncc45)c(OCc4ccc(-c5cn([C@H](C(=O)N6C[C@H](O)C[C@H]6C(=O)N[C@@H](CO)c6ccc(-c7scnc7C)cc6)C(C)C)nn5)cc4)c3n2)C1` [Example 102, (2S,4R)-1-((2S)-2-(4-(4-(((4-((1S,4S)-2,5-diazabicyclo[2.2.1]heptan-2-yl)-6-cyclopropyl-7-(6-fluoro-5-methyl-1H-indazol-4-yl)-2-((1s,3R)-3-methoxycyclobutoxy)quinazolin-8-yl)oxy)methyl)phenyl)-1H-1,2,3-triazol-1-yl)-3-methylbutanoyl)-4-hydroxy-N—((R)-2-hydroxy-1-(4-(4-methylthiazol-5-yl)phenyl)ethyl)pyrrolidine-2-carboxamide], in assay [1], the DC50 was below 10 nM. Also, the IC50 in assay [2] was below 10 nM.

`CCn1nccc1-c1ccc([C@H](CO)NC(=O)[C@@H]2C[C@@H](O)CN2C(=O)[C@H](C(C)C)n2cc(-c3ccc(COc4c(-c5c(C)c(F)cc6[nH]ncc56)c(C5CC5)cc5c(N6C[C@@H]7C[C@H]6CN7)nc(OCC(OC)C(F)(F)F)nc45)cc3)nn2)cc1` (stereo partly drawn) [Example 48, (2S,4R)-1-((2S)-2-(4-(4-(((4-((1S,4S)-2,5-diazabicyclo[2.2.1]heptan-2-yl)-6-cyclopropyl-7-(6-fluoro-5-methyl-1H-indazol-4-yl)-2-(3,3,3-trifluoro-2-methoxypropoxy)quinazolin-8-yl)oxy)methyl)phenyl)-1H-1,2,3-triazol-1-yl)-3-methylbutanoyl)-N—((R)-1-(4-(1-ethyl-1H-pyrazol-5-yl)phenyl)-2-hydroxyethyl)-4-hydroxypyrrolidine-2-carboxamide] registered a 50% degradation concentration (DC50) in assay [1] below 10 nM. The IC50 in assay [2] was below 10 nM.

The molecule `CCn1nccc1-c1ccc([C@H](CO)NC(=O)[C@@H]2C[C@@H](O)CN2C(=O)[C@H](C(C)C)n2cc(-c3ccc(COc4c(-c5c(C)c(F)cc6[nH]ncc56)c(C5CC5)cc5c(N6C[C@@H]7C[C@H]6CN7)nc(OCC(F)(F)COC)nc45)cc3)nn2)cc1` [Example 47, (2S,4R)-1-((2S)-2-(4-(4-(((4-((1S,4S)-2,5-diazabicyclo[2.2.1]heptan-2-yl)-6-cyclopropyl-2-(2,2-difluoro-3-methoxypropoxy)-7-(6-fluoro-5-methyl-1H-indazol-4-yl)quinazolin-8-yl)oxy)methyl)phenyl)-1H-1,2,3-triazol-1-yl)-3-methylbutanoyl)-N—((R)-1-(4-(1-ethyl-1H-pyrazol-5-yl)phenyl)-2-hydroxyethyl)-4-hydroxypyrrolidine-2-carboxamide] displayed a DC50 in assay [1] below 10 nM. The molecule also yielded an IC50 in assay [2] below 10 nM.

Regarding `CCn1nccc1C#CC(CO)NC(=O)[C@@H]1C[C@@H](O)CN1C(=O)[C@H](C(C)C)n1cc(-c2ccc(COc3c(-c4c(C)c(F)cc5[nH]ncc45)c(C4CC4)cc4c(N5C[C@@H]6C[C@H]5CN6)nc(OC[C@H](C)OC)nc34)cc2)nn1` (stereo in doubt) [Example 34, (2S,4R)-1-((2S)-2-(4-(4-(((4-((1S,4S)-2,5-diazabicyclo[2.2.1]heptan-2-yl)-6-cyclopropyl-7-(6-fluoro-5-methyl-1H-indazol-4-yl)-2-((S)-2-methoxypropoxy)quinazolin-8-yl)oxy)methyl)phenyl)-1H-1,2,3-triazol-1-yl)-3-methylbutanoyl)-N—((R)-4-(1-ethyl-1H-pyrazol-5-yl)-1-hydroxybut-3-yn-2-yl)-4-hydroxypyrrolidine-2-carboxamide], the DC50 in assay [1] is below 10 nM. This molecule had an IC50 in assay [2] below 10 nM.

In turn, `CCn1nccc1-c1ccc([C@H](CO)NC(=O)[C@@H]2C[C@@H](O)CN2C(=O)[C@H](C(C)C)n2cc(-c3ccc(COc4c(-c5c(C)c(F)cc6[nH]ncc56)c(C5CC5)cc5c(N6C[C@@H]7C[C@H]6CN7)nc(OC[C@H](C)OC)nc45)cc3OC)nn2)cc1` [Example 45, (2S,4R)-1-((2S)-2-(4-(4-(((4-((1S,4S)-2,5-diazabicyclo[2.2.1]heptan-2-yl)-6-cyclopropyl-7-(6-fluoro-5-methyl-1H-indazol-4-yl)-2-((S)-2-methoxypropoxy)quinazolin-8-yl)oxy)methyl)-2-methoxyphenyl)-1H-1,2,3-triazol-1-yl)-3-methylbutanoyl)-N—((R)-1-(4-(1-ethyl-1H-pyrazol-5-yl)phenyl)-2-hydroxyethyl)-4-hydroxypyrrolidine-2-carboxamide] yielded a half-maximal degradation concentration (DC50) in assay [1] of 10 to 100 nM. Also, the IC50 in assay [2] lay within 10 to 100 nM.

In the case of `CCn1nccc1-c1ccc([C@H](CO)NC(=O)[C@@H]2C[C@@H](O)CN2C(=O)[C@H](C(C)C)n2cc(-c3ccc(COc4c(-c5c(C)c(F)c(F)c6[nH]ncc56)c(C5CC5)cc5c(N6C[C@@H]7C[C@H]6CN7)nc(O[C@H]6CC[C@H](OC)CC6)nc45)cc3)nn2)cc1` [Example 99, (2S,4R)-1-((2S)-2-(4-(4-(((4-((1S,4S)-2,5-diazabicyclo[2.2.1]heptan-2-yl)-6-cyclopropyl-7-(6,7-difluoro-5-methyl-1H-indazol-4-yl)-2-(((1r,4S)-4-methoxycyclohexyl)oxy)quinazolin-8-yl)oxy)methyl)phenyl)-1H-1,2,3-triazol-1-yl)-3-methylbutanoyl)-N—((R)-1-(4-(1-ethyl-1H-pyrazol-5-yl)phenyl)-2-hydroxyethyl)-4-hydroxypyrrolidine-2-carboxamide], the DC50 in assay [1] is below 10 nM. This molecule came in with a half-maximal inhibitory concentration (IC50) in assay [2] below 10 nM.
